Measurements taken from ChEMBL document CHEMBL1201862, “PubChem BioAssay data set” (2004).
Counter-ions that a name gives are not always drawn.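 Test compounds were applied to cells in 96-well plates for 48 hours at 5 doses. GI50: concentration for 50% inhibition of growth.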 Activity calls are given as the source filed them. Rule as the data show it: active = GI50 up to about 1.1 µM and inactive = higher.

Assays:
Assay in all cases: NCI anticancer screen, dose series, 48 h
[1] = test system: TK-10
[2] = test system: KM12
[3] = test system: SF-295
[4] = test system: CCRF-CEM
[5] = test system: M14
[6] = test system: 786-0
[7] = test system: SF-268
[8] = test system: SK-MEL-2
[9] = test system: SR
[10] = test system: MDA-MB-435
[11] = test system: DU-145
[12] = test system: NCI-H522
[13] = test system: MDA-MB-231
[14] = test system: UO-31
[15] = test system: SNB-19
[16] = test system: MDA-N
[17] = test system: U-251
[18] = test system: K562
[19] = test system: OVCAR-3
[20] = test system: SNB-75

SMILES	GI50 [1]	GI50 [2]	GI50 [3]	GI50 [4]	GI50 [5]	GI50 [6]	GI50 [7]	GI50 [8]	GI50 [9]	GI50 [10]	GI50 [11]	GI50 [12]	GI50 [13]	GI50 [14]	GI50 [15]	GI50 [16]	GI50 [17]	GI50 [18]	GI50 [19]	GI50 [20]
N#CC1=C(S)N(C2OC(CO)C(O)C(O)C2O)C(c2ccccc2)=CC1c1ccco1 (stereo not given)	44.1 µM (inactive)	41.9 µM (inactive)	24.6 µM (inactive)	88.9 µM (inactive)	50.5 µM (inactive)	38 µM (inactive)	> 100 µM (inactive)	59 µM (inactive)	36.9 µM (inactive)	> 100 µM (inactive)	> 100 µM (inactive)	35.7 µM (inactive)	54.5 µM (inactive)	82.2 µM (inactive)	69.5 µM (inactive)	93.3 µM (inactive)	19.8 µM (inactive)	42.7 µM (inactive)	> 100 µM (inactive)	16.6 µM (inactive)
CC(=O)OCC1OC(n2c3c(cc(C#N)c2=O)CCCCCC3)C(OC(C)=O)C(OC(C)=O)C1OC(C)=O (stereo not given)	> 100 µM (inactive)	> 100 µM (inactive)	> 100 µM (inactive)	> 100 µM (inactive)	> 100 µM (inactive)	> 100 µM (inactive)	> 100 µM (inactive)	> 100 µM (inactive)	96.6 µM (inactive)	> 100 µM (inactive)	> 100 µM (inactive)	> 100 µM (inactive)	> 100 µM (inactive)	> 100 µM (inactive)	> 100 µM (inactive)	> 100 µM (inactive)	> 100 µM (inactive)	> 100 µM (inactive)	> 100 µM (inactive)	18.4 µM (inactive)
CC/C=C/C(/C=C/C[C@]1(CC)C[C@H](CC)[C@H](CC(=O)O)OO1)CC (stereo not given in full)	1.91 µM (inactive)	1.62 µM (inactive)	2.16 µM (inactive)	0.492 µM (active)	8.49 µM (inactive)	1.67 µM (inactive)	3.58 µM (inactive)	4.01 µM (inactive)	0.421 µM (active)	2.06 µM (inactive)	1.85 µM (inactive)	1.75 µM (inactive)	4.88 µM (inactive)	0.494 µM (active)	5.69 µM (inactive)	1.85 µM (inactive)	1.62 µM (inactive)	3.04 µM (inactive)	2 µM (inactive)	6.41 µM (inactive)
C=CC1(CC[C@]2(c3ccc(OC)c(OC)c3)C=[N+]([O-])O[C@H](O[C@@H]3CCCC[C@H]3C(C)(C)c3ccccc3)C2)OCC(C)(C)CO1	25.4 µM (inactive)	14.3 µM (inactive)	22.1 µM (inactive)	4.18 µM (inactive)	16.3 µM (inactive)	11.9 µM (inactive)	7.13 µM (inactive)	12.6 µM (inactive)	> 19.9 µM (inactive)	11.5 µM (inactive)	13.9 µM (inactive)	3.11 µM (inactive)	13.5 µM (inactive)	11.5 µM (inactive)	21.9 µM (inactive)	6.11 µM (inactive)	20 µM (inactive)	8.17 µM (inactive)	6.59 µM (inactive)	9.62 µM (inactive)
CCOC(=O)c1cc(-n2nnc3ccccc32)cn1C	> 10 µM (inactive)	> 10 µM (inactive)	> 10 µM (inactive)	> 10 µM (inactive)	> 10 µM (inactive)	> 10 µM (inactive)	> 10 µM (inactive)	> 10 µM (inactive)	1.32 µM (inactive)	> 10 µM (inactive)	> 10 µM (inactive)	> 10 µM (inactive)	> 10 µM (inactive)	> 10 µM (inactive)	> 10 µM (inactive)	> 10 µM (inactive)	> 10 µM (inactive)	> 10 µM (inactive)	> 10 µM (inactive)	8.59 µM (inactive)
COc1cc2cc(C(=O)N3CC(CCl)c4c3cc([N+](=O)[O-])c3ccccc43)[nH]c2c(OC)c1OC (stereo not given)	> 100 µM (inactive)	> 62.8 µM (inactive)	14.7 µM (inactive)	11.6 µM (inactive)	46.6 µM (inactive)	29.3 µM (inactive)	26.8 µM (inactive)	> 100 µM (inactive)	0.455 µM (active)	> 100 µM (inactive)	12.5 µM (inactive)	24.7 µM (inactive)	> 100 µM (inactive)	> 100 µM (inactive)	87.7 µM (inactive)	> 100 µM (inactive)	25.8 µM (inactive)	15.3 µM (inactive)	> 100 µM (inactive)	31.8 µM (inactive)
N[C@@H](Cc1ccc(N(CCCl)CCCl)cc1)C(=O)O [MELPHALAN HYDROCHLORIDE]	67.1 µM (inactive)	71.1 µM (inactive)	20 µM (inactive)	2.85 µM (inactive)	24.5 µM (inactive)	17.4 µM (inactive)	19.9 µM (inactive)	56.2 µM (inactive)	1.71 µM (inactive)	41.9 µM (inactive)	47.2 µM (inactive)	25.2 µM (inactive)	48.6 µM (inactive)	48 µM (inactive)	51.6 µM (inactive)	46.3 µM (inactive)	27 µM (inactive)	50.7 µM (inactive)	42.3 µM (inactive)	34.7 µM (inactive)
